ChEMBL document CHEMBL3991601, “The target landscape of clinical kinase drugs” (Science, 2017)
The source made the active and inactive calls. Rule as the data show it, for most assays here: actives have a measured Kd and inactives only a lower limit.

Columns and labels:
[1] = target: Cyclin-dependent kinase 1 (Homo sapiens, UniProt P06493)
[2] = target: T1, Serine/threonine-protein kinase Nek3 (Homo sapiens, UniProt P51956)
T1 sequence (P51956 whole entry): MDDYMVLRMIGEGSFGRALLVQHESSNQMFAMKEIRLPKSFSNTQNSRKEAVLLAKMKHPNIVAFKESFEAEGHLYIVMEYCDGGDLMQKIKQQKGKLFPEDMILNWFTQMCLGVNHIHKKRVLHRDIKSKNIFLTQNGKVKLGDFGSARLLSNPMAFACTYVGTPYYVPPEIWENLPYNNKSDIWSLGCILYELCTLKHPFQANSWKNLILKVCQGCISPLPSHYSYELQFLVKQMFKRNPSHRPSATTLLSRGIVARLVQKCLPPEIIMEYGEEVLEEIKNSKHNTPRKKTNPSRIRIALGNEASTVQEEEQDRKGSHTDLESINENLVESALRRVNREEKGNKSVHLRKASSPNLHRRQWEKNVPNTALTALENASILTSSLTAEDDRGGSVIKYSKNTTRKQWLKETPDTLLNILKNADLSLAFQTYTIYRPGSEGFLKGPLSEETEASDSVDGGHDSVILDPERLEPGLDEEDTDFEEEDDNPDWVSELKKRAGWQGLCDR

[3] = target: T2, Serine/threonine-protein kinase LATS1 (Homo sapiens, UniProt O95835)
T2 sequence (O95835 whole entry): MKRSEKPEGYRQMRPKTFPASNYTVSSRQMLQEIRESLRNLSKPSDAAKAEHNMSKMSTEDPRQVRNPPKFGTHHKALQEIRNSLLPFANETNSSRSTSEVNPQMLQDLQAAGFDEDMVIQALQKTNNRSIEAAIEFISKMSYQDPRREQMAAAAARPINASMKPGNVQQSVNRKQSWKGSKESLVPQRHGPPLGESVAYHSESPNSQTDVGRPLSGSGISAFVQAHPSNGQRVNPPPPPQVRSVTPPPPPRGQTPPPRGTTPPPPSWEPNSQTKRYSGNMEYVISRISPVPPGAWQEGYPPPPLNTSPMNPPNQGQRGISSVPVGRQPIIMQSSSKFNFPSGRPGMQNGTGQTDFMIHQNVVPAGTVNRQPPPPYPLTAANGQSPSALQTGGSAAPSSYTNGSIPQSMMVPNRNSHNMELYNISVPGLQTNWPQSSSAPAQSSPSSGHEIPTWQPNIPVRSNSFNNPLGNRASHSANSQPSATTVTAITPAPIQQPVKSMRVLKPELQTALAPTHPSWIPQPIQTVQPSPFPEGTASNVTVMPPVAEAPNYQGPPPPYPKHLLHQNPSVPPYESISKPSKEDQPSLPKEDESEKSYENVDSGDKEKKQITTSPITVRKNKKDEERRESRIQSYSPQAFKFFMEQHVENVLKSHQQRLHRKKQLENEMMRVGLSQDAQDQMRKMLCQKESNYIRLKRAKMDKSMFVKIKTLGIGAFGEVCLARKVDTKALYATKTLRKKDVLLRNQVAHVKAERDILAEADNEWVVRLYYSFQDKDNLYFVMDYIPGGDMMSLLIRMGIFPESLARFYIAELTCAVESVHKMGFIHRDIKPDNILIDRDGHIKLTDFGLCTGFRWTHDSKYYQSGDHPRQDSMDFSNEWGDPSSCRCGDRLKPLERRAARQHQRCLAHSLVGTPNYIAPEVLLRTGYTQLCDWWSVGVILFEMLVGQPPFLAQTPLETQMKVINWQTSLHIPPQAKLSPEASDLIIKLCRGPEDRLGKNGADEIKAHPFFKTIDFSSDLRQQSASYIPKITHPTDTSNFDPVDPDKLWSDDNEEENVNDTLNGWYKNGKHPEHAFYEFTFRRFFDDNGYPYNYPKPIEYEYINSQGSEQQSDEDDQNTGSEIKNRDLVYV

[4] = target: Epithelial discoidin domain-containing receptor 1 (Homo sapiens, UniProt Q08345)
[5] = target: T3, Ribosyldihydronicotinamide dehydrogenase [quinone] (Homo sapiens, UniProt P16083)
T3 sequence (P16083 whole entry): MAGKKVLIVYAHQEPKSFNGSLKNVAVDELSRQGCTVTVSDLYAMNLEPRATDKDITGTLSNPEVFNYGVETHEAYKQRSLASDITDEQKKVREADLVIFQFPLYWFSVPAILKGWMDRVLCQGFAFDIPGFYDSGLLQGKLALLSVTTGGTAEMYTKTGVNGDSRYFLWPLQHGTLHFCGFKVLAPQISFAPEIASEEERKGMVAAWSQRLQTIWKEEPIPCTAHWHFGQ

[6] = target: Putative heat shock protein HSP 90-beta 2 (Homo sapiens, UniProt Q58FF8)
[7] = target: Protein-tyrosine kinase 2-beta (Homo sapiens, UniProt Q14289)
[8] = target: Tyrosine-protein kinase SYK (Homo sapiens, UniProt P43405)
[9] = target: Platelet-derived growth factor receptor beta (Homo sapiens, UniProt P09619)
Deoxycytidine kinase = Deoxycytidine kinase (Homo sapiens, UniProt P27707)
[10] = target: Mitogen-activated protein kinase kinase kinase 1 (Homo sapiens, UniProt Q13233)
[11] = target: Serine/threonine-protein kinase PAK 2 (Homo sapiens, UniProt Q13177)
Also: in the data inactive means no Kd found up to 30 µM.

Sequence of Putative heat shock protein HSP 90-beta 2 (Q58FF8 whole entry): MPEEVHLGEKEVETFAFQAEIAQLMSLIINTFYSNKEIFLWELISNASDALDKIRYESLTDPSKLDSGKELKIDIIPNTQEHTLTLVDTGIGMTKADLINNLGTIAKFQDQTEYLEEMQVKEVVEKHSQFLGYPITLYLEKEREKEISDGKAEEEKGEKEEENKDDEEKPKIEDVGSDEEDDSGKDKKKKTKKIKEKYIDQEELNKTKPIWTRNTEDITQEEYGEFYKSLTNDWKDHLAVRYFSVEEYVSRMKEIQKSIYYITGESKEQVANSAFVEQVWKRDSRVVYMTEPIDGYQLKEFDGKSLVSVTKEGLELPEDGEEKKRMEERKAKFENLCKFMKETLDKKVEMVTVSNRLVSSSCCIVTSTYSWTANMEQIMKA
Sequence of Protein-tyrosine kinase 2-beta (Q14289 whole entry): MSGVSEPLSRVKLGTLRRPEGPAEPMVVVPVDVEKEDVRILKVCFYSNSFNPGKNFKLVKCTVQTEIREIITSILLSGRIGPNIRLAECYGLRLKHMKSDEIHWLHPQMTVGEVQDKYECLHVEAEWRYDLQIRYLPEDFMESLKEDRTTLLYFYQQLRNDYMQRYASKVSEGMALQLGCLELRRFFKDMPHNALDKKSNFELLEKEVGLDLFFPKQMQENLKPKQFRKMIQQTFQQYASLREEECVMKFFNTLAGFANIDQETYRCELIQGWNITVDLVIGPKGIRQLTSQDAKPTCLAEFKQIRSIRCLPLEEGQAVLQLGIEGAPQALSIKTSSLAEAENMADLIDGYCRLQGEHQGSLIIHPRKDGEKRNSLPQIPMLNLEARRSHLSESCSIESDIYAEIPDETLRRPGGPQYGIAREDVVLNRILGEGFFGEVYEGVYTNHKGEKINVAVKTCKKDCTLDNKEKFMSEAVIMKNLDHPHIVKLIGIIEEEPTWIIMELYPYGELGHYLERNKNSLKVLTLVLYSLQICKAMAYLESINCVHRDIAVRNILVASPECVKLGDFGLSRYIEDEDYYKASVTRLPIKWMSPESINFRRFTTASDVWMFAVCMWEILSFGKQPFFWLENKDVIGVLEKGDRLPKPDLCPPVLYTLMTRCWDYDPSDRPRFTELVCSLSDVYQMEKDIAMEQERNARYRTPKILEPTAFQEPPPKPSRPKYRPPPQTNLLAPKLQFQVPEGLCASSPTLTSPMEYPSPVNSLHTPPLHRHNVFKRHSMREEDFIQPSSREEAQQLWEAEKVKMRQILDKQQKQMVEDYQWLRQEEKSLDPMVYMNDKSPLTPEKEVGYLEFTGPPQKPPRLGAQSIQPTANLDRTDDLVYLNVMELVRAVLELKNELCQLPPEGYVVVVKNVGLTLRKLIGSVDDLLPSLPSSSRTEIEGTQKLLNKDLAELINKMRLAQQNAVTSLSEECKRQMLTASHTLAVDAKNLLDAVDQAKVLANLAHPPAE
Sequence of Epithelial discoidin domain-containing receptor 1 (Q08345 whole entry, the tested form may be a part): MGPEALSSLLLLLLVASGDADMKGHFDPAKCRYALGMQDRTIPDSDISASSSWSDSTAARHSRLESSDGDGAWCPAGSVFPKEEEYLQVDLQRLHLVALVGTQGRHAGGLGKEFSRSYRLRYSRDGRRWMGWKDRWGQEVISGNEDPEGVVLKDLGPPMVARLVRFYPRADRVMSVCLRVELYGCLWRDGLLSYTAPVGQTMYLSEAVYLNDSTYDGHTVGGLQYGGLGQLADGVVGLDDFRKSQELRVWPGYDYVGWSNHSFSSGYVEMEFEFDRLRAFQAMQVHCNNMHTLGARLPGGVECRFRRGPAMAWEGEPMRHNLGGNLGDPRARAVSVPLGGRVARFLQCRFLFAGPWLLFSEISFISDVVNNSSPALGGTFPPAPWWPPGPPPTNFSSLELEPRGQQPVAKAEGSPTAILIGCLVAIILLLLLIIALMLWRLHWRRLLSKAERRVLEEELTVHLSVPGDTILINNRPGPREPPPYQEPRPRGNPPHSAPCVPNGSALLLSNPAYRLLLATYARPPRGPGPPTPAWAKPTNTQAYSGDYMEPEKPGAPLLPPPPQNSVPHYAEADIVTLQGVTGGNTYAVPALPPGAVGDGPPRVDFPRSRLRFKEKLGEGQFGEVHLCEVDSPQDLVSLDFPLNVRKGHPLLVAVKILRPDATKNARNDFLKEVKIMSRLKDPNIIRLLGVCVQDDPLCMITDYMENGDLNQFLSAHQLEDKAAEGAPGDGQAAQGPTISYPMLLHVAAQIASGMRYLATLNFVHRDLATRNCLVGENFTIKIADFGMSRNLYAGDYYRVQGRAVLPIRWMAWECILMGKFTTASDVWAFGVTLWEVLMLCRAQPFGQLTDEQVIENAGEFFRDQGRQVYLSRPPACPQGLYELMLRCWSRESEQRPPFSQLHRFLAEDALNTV
Sequence of Cyclin-dependent kinase 1 (P06493 whole entry): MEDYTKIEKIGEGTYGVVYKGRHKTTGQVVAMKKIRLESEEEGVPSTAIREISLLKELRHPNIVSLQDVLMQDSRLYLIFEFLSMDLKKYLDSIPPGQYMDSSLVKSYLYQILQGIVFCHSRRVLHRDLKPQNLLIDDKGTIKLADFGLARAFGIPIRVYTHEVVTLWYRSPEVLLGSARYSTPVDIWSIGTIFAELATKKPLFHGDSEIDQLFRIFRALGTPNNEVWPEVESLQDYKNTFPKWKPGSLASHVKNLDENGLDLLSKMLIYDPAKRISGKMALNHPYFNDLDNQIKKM
Sequence of Mitogen-activated protein kinase kinase kinase 1 (Q13233 whole entry): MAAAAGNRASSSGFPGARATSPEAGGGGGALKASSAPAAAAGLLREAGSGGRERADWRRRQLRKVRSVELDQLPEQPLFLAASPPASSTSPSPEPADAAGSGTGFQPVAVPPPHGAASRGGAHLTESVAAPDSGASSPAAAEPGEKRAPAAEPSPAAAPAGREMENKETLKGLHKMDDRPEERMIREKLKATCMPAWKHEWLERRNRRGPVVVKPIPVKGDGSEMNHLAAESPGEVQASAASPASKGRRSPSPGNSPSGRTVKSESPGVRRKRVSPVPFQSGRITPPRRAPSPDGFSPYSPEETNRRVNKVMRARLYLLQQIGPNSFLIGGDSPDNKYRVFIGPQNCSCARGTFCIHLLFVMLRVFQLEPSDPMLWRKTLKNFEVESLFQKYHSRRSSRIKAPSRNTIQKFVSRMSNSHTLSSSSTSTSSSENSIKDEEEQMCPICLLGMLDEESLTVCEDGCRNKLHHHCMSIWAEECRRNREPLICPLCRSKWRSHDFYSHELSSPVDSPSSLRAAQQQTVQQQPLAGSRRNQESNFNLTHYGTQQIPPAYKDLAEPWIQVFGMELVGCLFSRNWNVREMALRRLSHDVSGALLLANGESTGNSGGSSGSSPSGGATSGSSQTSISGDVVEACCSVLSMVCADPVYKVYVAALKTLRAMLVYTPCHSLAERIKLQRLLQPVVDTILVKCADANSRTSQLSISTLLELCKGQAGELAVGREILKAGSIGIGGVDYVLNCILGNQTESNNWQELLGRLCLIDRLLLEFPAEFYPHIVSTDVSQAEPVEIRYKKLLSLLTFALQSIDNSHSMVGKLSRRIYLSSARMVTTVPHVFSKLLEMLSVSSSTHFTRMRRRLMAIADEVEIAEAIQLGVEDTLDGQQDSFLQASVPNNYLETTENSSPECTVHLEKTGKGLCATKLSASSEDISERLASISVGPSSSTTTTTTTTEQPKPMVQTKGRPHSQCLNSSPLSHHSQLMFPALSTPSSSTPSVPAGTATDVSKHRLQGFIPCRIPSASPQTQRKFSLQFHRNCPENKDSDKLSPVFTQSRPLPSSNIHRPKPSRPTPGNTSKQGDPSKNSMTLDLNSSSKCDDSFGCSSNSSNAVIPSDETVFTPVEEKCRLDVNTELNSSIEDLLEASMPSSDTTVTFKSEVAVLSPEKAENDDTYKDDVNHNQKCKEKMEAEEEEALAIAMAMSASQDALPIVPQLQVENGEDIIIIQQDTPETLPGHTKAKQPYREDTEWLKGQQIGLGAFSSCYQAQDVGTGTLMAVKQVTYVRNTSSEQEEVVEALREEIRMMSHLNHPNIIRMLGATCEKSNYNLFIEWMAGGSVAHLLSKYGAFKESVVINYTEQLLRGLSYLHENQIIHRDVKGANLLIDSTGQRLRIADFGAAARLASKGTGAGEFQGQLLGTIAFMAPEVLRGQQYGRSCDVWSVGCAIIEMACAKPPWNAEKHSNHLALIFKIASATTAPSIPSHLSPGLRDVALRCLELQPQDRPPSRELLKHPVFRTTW
Sequence of Deoxycytidine kinase (P27707 whole entry): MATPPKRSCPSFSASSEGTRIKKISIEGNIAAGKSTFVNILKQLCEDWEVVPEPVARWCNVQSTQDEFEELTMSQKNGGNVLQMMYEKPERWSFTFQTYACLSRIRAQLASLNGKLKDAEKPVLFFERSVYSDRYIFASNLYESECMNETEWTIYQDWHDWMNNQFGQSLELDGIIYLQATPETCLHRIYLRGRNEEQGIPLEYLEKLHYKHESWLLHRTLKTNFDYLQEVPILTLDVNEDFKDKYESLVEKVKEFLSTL
Sequence of Serine/threonine-protein kinase PAK 2 (Q13177 whole entry): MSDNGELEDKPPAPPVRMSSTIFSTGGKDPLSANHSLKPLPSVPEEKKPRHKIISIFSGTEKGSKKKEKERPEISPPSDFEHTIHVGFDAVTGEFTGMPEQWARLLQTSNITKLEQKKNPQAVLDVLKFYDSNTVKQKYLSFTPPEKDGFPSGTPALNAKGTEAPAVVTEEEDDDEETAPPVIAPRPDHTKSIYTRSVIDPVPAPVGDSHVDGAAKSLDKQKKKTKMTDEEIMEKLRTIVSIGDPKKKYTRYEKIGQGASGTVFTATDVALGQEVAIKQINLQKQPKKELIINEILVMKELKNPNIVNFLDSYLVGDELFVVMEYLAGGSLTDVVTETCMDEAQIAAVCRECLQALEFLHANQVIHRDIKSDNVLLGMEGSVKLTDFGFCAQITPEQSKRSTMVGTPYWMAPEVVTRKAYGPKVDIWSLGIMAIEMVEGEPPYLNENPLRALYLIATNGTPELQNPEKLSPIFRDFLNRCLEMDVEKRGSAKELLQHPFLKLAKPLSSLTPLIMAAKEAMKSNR

| Kd [1] | Kd [2] | Kd [3] | Kd [4] | Kd [5] | Kd [6] | Kd [7] | Kd [8] | Kd [9] | Kd (Deoxycytidine kinase) | Kd [10] | Kd [11] | SMILES |
| --- | --- | --- | --- | --- | --- | --- | --- | --- | --- | --- | --- | --- |
| > 30 µM (inactive) | > 30 µM (inactive) | > 30 µM (inactive) | 4.04 µM (active) | 6.36 µM (active) | > 30 µM (inactive) | 0.273 µM (active) | > 30 µM (inactive) | > 30 µM (inactive) | > 30 µM (inactive) | > 30 µM (inactive) |  | COc1cc(N2CCC(N3CCN(C)CC3)CC2)ccc1Nc1ncnc(Nc2ccccc2S(=O)(=O)C(C)C)n1 [ASP-3026] |
| > 30 µM (inactive) | > 30 µM (inactive) | > 30 µM (inactive) | > 30 µM (inactive) | > 30 µM (inactive) | > 30 µM (inactive) | > 30 µM (inactive) | > 30 µM (inactive) | > 30 µM (inactive) | > 30 µM (inactive) | > 30 µM (inactive) |  | C[C@@H](Nc1cc(F)cc(F)c1)c1cc(C(=O)N(C)C)cc2c(=O)cc(N3CCOCC3)oc12 [AZD-8186] |
|  | 0.83 µM (active) | 0.066 µM (active) | > 30 µM (inactive) | 0.648 µM (active) | > 30 µM (inactive) |  |  |  | > 30 µM (inactive) | 8.16 µM (active) | > 30 µM (inactive) | Cc1nc(N)sc1-c1ccnc(Nc2ccc(N3CCOCC3)cc2)n1 [CYC-116] |
|  | > 30 µM (inactive) | > 30 µM (inactive) | > 30 µM (inactive) | > 30 µM (inactive) | > 30 µM (inactive) | > 30 µM (inactive) | > 30 µM (inactive) |  | > 30 µM (inactive) | > 30 µM (inactive) | > 30 µM (inactive) | CCc1cnn2c(NCc3ccc[n+]([O-])c3)cc(N3CCCC[C@H]3CCO)nc12 [DINACICLIB] |
| > 30 µM (inactive) |  |  |  | 3.01 µM (active) | > 30 µM (inactive) |  |  |  | > 30 µM (inactive) |  |  | CN1CCN(c2ccc3nc(-c4c(N)c5c(F)cccc5[nH]c4=O)[nH]c3c2)CC1 [DOVITINIB] |
|  | > 30 µM (inactive) | > 30 µM (inactive) | 0.755 µM (active) | > 30 µM (inactive) | > 30 µM (inactive) | > 30 µM (inactive) |  |  | > 30 µM (inactive) | > 30 µM (inactive) | > 30 µM (inactive) | Cc1cc(Nc2cc(N3CCN(C)CC3)nc(/C=C/c3ccccc3)n2)n[nH]1 [ENMD-2076] |
| > 30 µM (inactive) |  |  |  | > 30 µM (inactive) | > 30 µM (inactive) |  |  |  | > 30 µM (inactive) |  |  | CCn1c(-c2nonc2N)nc2c(C#CC(C)(C)O)ncc(OC[C@H]3CCCNC3)c21 [GSK-690693] |
| > 30 µM (inactive) | > 30 µM (inactive) | > 30 µM (inactive) | > 30 µM (inactive) | > 30 µM (inactive) | > 30 µM (inactive) | > 30 µM (inactive) | > 30 µM (inactive) | > 30 µM (inactive) | > 30 µM (inactive) | > 30 µM (inactive) |  | Cc1c(F)cc(C(=O)NC2CC2)cc1-c1ccc(C(=O)NCC(C)(C)C)cn1 [LOSMAPIMOD] |
| > 30 µM (inactive) | > 30 µM (inactive) | > 30 µM (inactive) | > 30 µM (inactive) | > 30 µM (inactive) | > 30 µM (inactive) | > 30 µM (inactive) | > 30 µM (inactive) | > 30 µM (inactive) | > 30 µM (inactive) | > 30 µM (inactive) |  | Cn1cc(-c2ccc(F)c(C(F)(F)F)c2)nc1C1CCN(c2ncnc3[nH]ncc23)CC1 [LY-2584702] |
| > 30 µM (inactive) | > 30 µM (inactive) | > 30 µM (inactive) | 71.5 µM (active) |  | > 30 µM (inactive) | > 30 µM (inactive) | > 30 µM (inactive) | 2.67 µM (active) | > 30 µM (inactive) | > 30 µM (inactive) |  | C1=C/COCc2cc(ccc2OCCN2CCCC2)Nc2nccc(n2)-c2cccc(c2)COC/1 [PACRITINIB] |
| > 30 µM (inactive) | > 30 µM (inactive) | > 30 µM (inactive) | > 30 µM (inactive) | > 30 µM (inactive) | > 30 µM (inactive) | > 30 µM (inactive) | > 30 µM (inactive) |  | > 30 µM (inactive) | > 30 µM (inactive) | > 30 µM (inactive) | OCCn1cc(-c2cnc3nnn(Cc4ccc5ncccc5c4)c3n2)cn1 [PF-04217903] |
| > 30 µM (inactive) | > 30 µM (inactive) | > 30 µM (inactive) | 0.358 µM (active) | > 30 µM (inactive) |  | > 30 µM (inactive) | > 30 µM (inactive) |  | > 30 µM (inactive) | 0.465 µM (active) | > 30 µM (inactive) | CNC(=O)c1cc(Oc2ccc(NC(=O)Nc3ccc(Cl)c(C(F)(F)F)c3)c(F)c2)ccn1 [REGORAFENIB] |
| > 30 µM (inactive) |  |  |  | > 30 µM (inactive) | > 30 µM (inactive) |  |  |  | 0.012 µM (active) |  |  | Nc1nc(N)c2nc(-c3cccc(O)c3)c(-c3cccc(O)c3)nc2n1 [TG100-115] |

| SMILES | Kd [1] | Kd [2] | Kd [3] | Kd [4] | Kd [5] | Kd [6] | Kd [7] | Kd [8] | Kd [9] | Kd (Deoxycytidine kinase) | Kd [10] | Kd [11] |
| --- | --- | --- | --- | --- | --- | --- | --- | --- | --- | --- | --- | --- |
| COC(=O)[C@@]1(O)C[C@H]2O[C@]1(C)n1c3ccccc3c3c4c(c5c6ccccc6n2c5c31)C(=O)NC4 [K-252A] | > 30 µM (inactive) | > 30 µM (inactive) | 0.067 µM (active) | > 30 µM (inactive) | 4.03 µM (active) | > 30 µM (inactive) | 1.36 µM (active) |  | 1.01 µM (active) | > 30 µM (inactive) | > 30 µM (inactive) | > 30 µM (inactive) |
| Cc1cn(-c2cc(NC(=O)c3ccc(C)c(Nc4nccc(-c5cccnc5)n4)c3)cc(C(F)(F)F)c2)cn1 [NILOTINIB] | > 30 µM (inactive) |  |  |  | 1.48 µM (active) | > 30 µM (inactive) |  |  |  | > 30 µM (inactive) |  |  |
| O=C(Nc1cccc(Cl)c1)Nc1ncc(CCNc2ncnc3ccsc23)s1 [SNS-314] |  | > 30 µM (inactive) | > 30 µM (inactive) | 0.14 µM (active) | > 30 µM (inactive) | > 30 µM (inactive) | > 30 µM (inactive) |  |  | > 30 µM (inactive) |  | > 30 µM (inactive) |
| CN1CCC(COc2cnc(-c3cccc(Cn4nc(-c5cccc(C#N)c5)ccc4=O)c3)nc2)CC1 [TEPOTINIB] | > 30 µM (inactive) | > 30 µM (inactive) | > 30 µM (inactive) | > 30 µM (inactive) | 0.875 µM (active) | > 30 µM (inactive) | > 30 µM (inactive) |  | > 30 µM (inactive) | > 30 µM (inactive) | > 30 µM (inactive) | > 30 µM (inactive) |
